The values below come from paper PMC3872530 (Molecular microbiology, 2013).

What all share (assay): whole-cell EPR of [2Fe-2S] cluster
What all share (type): cell-based

One assay has as its target PaSoxR (Pseudomonas aeruginosa, UniProt Q51506). As to conditions: oxidant, 40 min, E. coli XA90, EPR at 15 K.
A further assay addresses T1, EcSoxR (Escherichia coli, UniProt P0ACS2).
T1 sequence (P0ACS2 1-154): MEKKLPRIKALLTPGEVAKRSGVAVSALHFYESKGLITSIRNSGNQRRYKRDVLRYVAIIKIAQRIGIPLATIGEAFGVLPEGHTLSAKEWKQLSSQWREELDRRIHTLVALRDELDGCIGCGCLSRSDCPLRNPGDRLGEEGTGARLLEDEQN
As to conditions: oxidant, 40 min, E. coli XA90, EPR at 15 K.

A further assay deals with T2, ScSoxR (Streptomyces coelicolor, UniProt Q9S255).
T2 sequence (Q9S255 1-175): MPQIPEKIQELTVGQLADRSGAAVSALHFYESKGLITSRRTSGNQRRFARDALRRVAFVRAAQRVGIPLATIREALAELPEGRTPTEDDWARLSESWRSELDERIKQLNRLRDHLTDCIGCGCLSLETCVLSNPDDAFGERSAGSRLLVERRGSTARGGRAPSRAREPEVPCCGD
As to conditions: oxidant; 50 uM, 40 min, E. coli XA90, EPR at 15 K.

Chain of PaSoxR (Q51506 whole entry): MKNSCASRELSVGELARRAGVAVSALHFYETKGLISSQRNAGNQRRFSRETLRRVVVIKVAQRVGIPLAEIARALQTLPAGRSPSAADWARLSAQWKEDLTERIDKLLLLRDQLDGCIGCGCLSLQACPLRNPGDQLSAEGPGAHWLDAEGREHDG

In the case of `C[n+]1c2ccccc2nc2ccccc21` [PMS, phenazine methosulfate], the “whole-cell EPR of [2Fe-2S] cluster” value on PaSoxR (50 uM) is “PMS always silenced the spectral peaks”; on EcSoxR (50 uM) it was “The spectra disappeared upon treatment with PQ and PMS”; on ScSoxR it was “The cluster was oxidized to its EPR-silent state when the cells were treated with PMS”.
On to `C[n+]1ccc(-c2cc[n+](C)cc2)cc1` [PQ, paraquat], for which the “whole-cell EPR of [2Fe-2S] cluster” value at PaSoxR (100 uM, partial effect) was “PQ was partially effective in oxidizing the [2Fe-2S] cluster”; at EcSoxR (100 uM), “The spectra disappeared upon treatment with PQ and PMS”.
